Assay results published in patent US12492403B2, “Aptamers and the use thereof in the treatment of cancer” (FUNDACIÓN PARA LA INVESTIGACIÓN BIOMÉDICA DEL HOSPITAL …, priority 2018, dated 2025).

How the values were obtained:
4T1 cells = experiment: MTT activity assay in 4T1 cells; type: cell-based, mouse; conditions: 4T1 cells, 0, 250, 500 and 1000 nM, 48 hours
Protocol: FIG. 21A-21E. In vivo efficacy of apMNKQ2 in a mouse metastatic model with an orthotopic xenograft of 4T1 cells. (A) Effect of apMNKQ2 aptamer on the proliferation of 4T1 cells (mouse breast tumor line). 4T1 cells were seeded in p96 at a density of 1.5×10^3 cells/well. […] The graph (FIG. 21A) represents the means±SEM of 3 independent experiments. (B) Effect of apMNKQ2 aptamer on migration and invasion of 4T1 cells. Cells were seeded in p6 at a density of 2×10^5 cells/well and transfected with 500 nM apMNKQ2 at 24 hours. At 6 hours they were deprived of serum, and after 24 hours they were collected and re-seeded (4×10^4 cells/well) in a transwell […]. At 24 hours (migration) or 48 h (invasion), the transwell membranes were stained with Hoechst and the cells that had passed through the fluorescence microscopy were quantified. Values (FIG. 21B) represent the mean±SEM of 2-3 independent experiments. In vivo efficacy of apMNKQ2 in a mouse metastatic model with an orthotopic xenograft of 4T1 cells. […] The number of metastases is analyzed by the reverse staining method (with Chinese ink) and the metastases grouped according to their size in four groups (0.5, 1, 2 and >2). […]
MTT activity. […] After 48 hours, the reduction of MTT was determined by means of spectrophotometry in Infinite F200 (TECAN, Switzerland) at 540 nm.

MDA-MB-468 cells = experiment: Cell viability by trypan blue exclusion; type: cell-based, human; conditions: MDA-MB-468, 50 nM, 24 hours after transfection, vs control aptamer AT
Protocol: (§1) FIG. 9. Cell viability analysis by trypan blue exclusion. MCF7, MDA-MB-231, and MDA-MB-468 cells from different experiments were collected 24 hours after transfection, diluted 1:10 in trypan blue, and counted in a TC20 counter (BioRad, USA). The boxes represent the mean±the maximum and minimum of 12-14 independent experiments (**p<0.01, and ***p<0.001 with respect to the control aptamer AT). Trypan blue exclusion. Cells (live and dead) were collected in their corresponding medium, trypan blue (Sigma-Aldrich, USA) was added, and the cells were counted using the TC20 counter (BioRad, USA). Living cells are those which exclude the dye. The results were expressed as the number of living cells/mL. The cell lines were then transfected with the previously established concentrations and the number of living cells was determined 24 hours after transfection with […]2 or with the control aptamer AT by means of trypan blue exclusion.

MCF7 cells [1] = experiment: Cell viability by trypan blue exclusion; type: cell-based, human; conditions: MCF7, 150 nM, 24 hours after transfection, vs control aptamer AT
Protocol: as §1

MDA-MB-231 cells = experiment: Cell viability by trypan blue exclusion; type: cell-based, human; conditions: MDA-MB-231, 400 nM, 24 hours after transfection, vs control aptamer AT
Protocol: as §1

eIF4E = experiment: Western blot of phosphorylation, combined therapy study; type: cell-based, human; conditions: MDA-MB-231 and MCF7 cells, 24 hours
Protocol: (§2) FIG. 22A & 22B. Combined therapy studies of apMNKQ2 and everolimus. […] The different antibodies used are indicated.
(§3) Seventy-two hours after treatment, MTT activity was measured.

ribosomal protein S6 = experiment: as above; type: cell-based, human; conditions: MDA-MB-231 and MCF7 cells, 24 hours
Protocol: as §2, §3

AKT = experiment: as above; type: cell-based, human; conditions: MDA-MB-231 and MCF7 cells, 24 hours
Protocol: as §2, §3

MCF7 cells [2] = experiment: Apoptosis by annexin V/propidium iodide flow cytometry; type: cell-based, human; conditions: MCF7, working concentration 150 nM, 24 hours
Protocol: FIGS. 10A-10C. Analysis of the effect of the aptamer on apoptosis with annexin V in breast cell lines. MCF7 (FIG. 10A), MDA-MB-231 (FIG. 10B), and MDA-MB-468 (FIG. 10C) cells were seeded in 6-well plates at a density of 2.5×10^5 cells/well and transfected at 24 hours with apMNKQ2 at the set working concentrations. After 24 hours, the cells were collected, fixed, and stained with annexin V-FITC and propidium iodide. Finally, they were analyzed by cytometry. The bars represent the mean±SEM of 3 independent experiments (*p<0.05, **p<0.01, and ***p<0.001).
The assays were carried out by seeding 5×10^5 cells/well in 6-well plates and transfecting the cells 24 hours later. After 24 hours of transfection, the cells were collected and washed twice with PBS. They were then resuspended in a 1× binding buffer and left at a concentration of 1×10^6 cells/mL. Aliquots of 10^5 cells were separated from the preceding solution, as many as the number of treatments, and the annexin V and propidium iodide dyes were added to obtain: a double negative control (without labeling, living cells), a double positive for both types of labeling (late apoptotic cells and necrotic cells will be labeled), and cells labeled separately with annexin V and propidium iodide. They were incubated in darkness for 15 minutes at room temperature and brought to a final volume of 500 μL with a 1× binding buffer. Finally, the cells were passed through a flow cytometer (BD FACSCalibur™, BDBiosciences, USA) within a time no more than 1 hour after labeling. The data obtained was analyzed by means of the Flowing software 2.5.1 program.
The translocation of the […] from the inner face of the plasma membrane of the cells to the outer face by translocases is a process characteristic of apoptotic cells. To study this process, assays with annexin V-fluorescein (FITC) were performed in three cell lines. This recombinant protein binds to the phosphatidylserine residues exposed on the outer face of the plasma membrane of apoptotic cells. Together with said recombinant protein, propidium iodide (IP), an impermeable DNA marker that only enters cells when the membrane is compromised, was also used. To perform these assays, the cells were transfected with apMNKQ2 and with the control aptamer AT at the working concentrations. At 24 hours, the cells were collected, fixed, and stained with annexin V-FITC and propidium iodide. Finally, the cells were analyzed by means of flow cytometry and differentiation was made between non-apoptotic cells (annexin V-FICT negative/IP negative), apoptotic cells (annexin V-FICT positive/IP negative), late apoptotic cells (annexin V-FICT positive/IP positive), and necrotic cells (annexin V-FITC negative/IP positive).

5′TGGGGTGGGCGGGCGGGGGTGGGGGTGGT-3′ (DNA, backbone and methylation of C not given here; further chemistry not fully specified) [apMNKQ2]
cell proliferation as measured by MTT activity (4T1 cells): does not affect cell proliferation
total number of living cells (trypan blue exclusion) (MDA-MB-468 cells): significant drop
total number of living cells (trypan blue exclusion) (MCF7 cells [1]): significant drop
total number of living cells (trypan blue exclusion) (MDA-MB-231 cells): very slight drop
phosphorylation of eIF4E (eIF4E): no effect
phosphorylation of ribosomal protein S6 (dependent on mTOR activity) (ribosomal protein S6): also affects this phosphorylation
phosphorylation of AKT (AKT): no effect
induction of apoptosis (annexin V-FITC/propidium iodide) (MCF7 cells [2]): capable of inducing apoptosis
late apoptosis with respect to the control (MCF7 cells [2]): statistically significant
